Test results taken from patent US6794415B2, “Biphenyl compounds and their use as oestrogenic agents” (Aventis Pharma S.A., priority 1996, dated 2004).

Experiments:
[1] = target: T1, Oestrogen Receptor of a Rat's Uterus (ROR) (Rattus norvegicus, UniProt P06211); test: Oestrogen receptor of a rat's uterus (ROR): displacement of tritiated oestradiol, relative bond affinity; assay type: binding; conditions: oestradiol = 100; RBA=100(CH)/(CX); rat uterus cytosol, incubation 0° C. for 24 hours
T1 construct: the uteri are removed, then homogenized at 0° C; from tissue; host or cells: rat uterus cytosol (ultracentrifugation supernatant of homogenate)
T1 sequence (P06211 1-600): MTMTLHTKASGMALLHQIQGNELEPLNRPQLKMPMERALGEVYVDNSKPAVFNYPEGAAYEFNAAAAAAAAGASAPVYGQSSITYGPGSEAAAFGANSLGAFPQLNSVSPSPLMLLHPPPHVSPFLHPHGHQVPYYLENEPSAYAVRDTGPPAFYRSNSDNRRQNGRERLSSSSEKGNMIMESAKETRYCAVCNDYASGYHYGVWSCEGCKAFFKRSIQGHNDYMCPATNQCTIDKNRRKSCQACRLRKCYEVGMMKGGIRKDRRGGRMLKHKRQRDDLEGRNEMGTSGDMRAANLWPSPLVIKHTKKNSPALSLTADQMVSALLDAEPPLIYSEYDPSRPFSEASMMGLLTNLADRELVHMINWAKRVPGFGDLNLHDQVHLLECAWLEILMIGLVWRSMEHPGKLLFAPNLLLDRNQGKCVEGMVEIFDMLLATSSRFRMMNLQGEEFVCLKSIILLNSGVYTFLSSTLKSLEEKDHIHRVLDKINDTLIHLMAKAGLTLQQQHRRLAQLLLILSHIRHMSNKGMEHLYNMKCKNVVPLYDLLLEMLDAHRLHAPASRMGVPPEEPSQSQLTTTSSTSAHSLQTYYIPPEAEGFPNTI
Protocol: Oestrogen Receptor of a Rat's Uterus (ROR):
Female rats of 280-300 g and castrated 24 hours beforehand, are sacrificed, the uteri are removed, then homogenized at 0° C., using a teflon-glass Potter in a buffered solution BS (10 mM Tris, 0.25 M saccharose, HCl pH 7.4) (1 g of tissue per 10 ml of BS). The homogenate is then ultracentrifuged (209,000 g×30mn.) at 0° C. The supernatant aliquots thus obtained are incubated at 0° C. for 24 hours, with a constant concentration (2.5 10^−9M) of tritiated oestrodiol in the presence of increasing concentrations either of unlabelled oestradiol (0-1000×10^−9M), or of unlabelled product to be tested […]. The concentration of bound tritiated oestradiol (B) is then measured in each incubate by the carbon-dextran adsorption technique.
(§1) Calculation of the Relative Bond Affinity (RBA):
(§2) The following two curves are drawn: the percentage of bound tritiated hormone 100×B/B0 as a function of the logarithm of the concentration of unlabelled reference hormone or as a function of the concentration of unlabelled test product.
(§3) The straight line of the equation
(§4) B0=concentration of bound tritiated hormone in the absence of any unlabelled product.
(§5) B=concentration of bound tritiated hormone in the presence of a concentration X of unlabelled product.
(§6) B min=concentration of bound tritiated hormone for an incubation of this tritiated hormone at a concentration (T) in the presence of a large excess of unlabelled reference hormone (1000×10^−9M) for the human receptor.
(§7) The intersections of the straight line I50 and the curves allow the evaluation of the concentrations of unlabelled reference hormone (CH) and of the unlabelled test product (CX) which inhibit by 50% the binding of the tritiated hormone on the receptor.
(§8) The relative bond affinity (RBA) of the test product is calculated by the equation: RBA=100(CH)/(CX).

[2] = target: T2, recombinant human oestrogen receptor (HOR) (Homo sapiens, UniProt P03372); test: Human oestrogen receptor (HOR): displacement of tritiated oestradiol, relative bond affinity; assay type: binding; conditions: oestradiol = 100, RBA=100(CH)/(CX); for HOR short t relative bond affinity (RBA): incubation 0° C. for 3 hours (short t); for HOR long t relative bond affinity (RBA): incubation 0° C. for 24 hours (long t)
T2 construct: made in house; host or cells: SF9 insect cells (ATCC CRL1711), baculovirus
T2 sequence (P03372 1-595): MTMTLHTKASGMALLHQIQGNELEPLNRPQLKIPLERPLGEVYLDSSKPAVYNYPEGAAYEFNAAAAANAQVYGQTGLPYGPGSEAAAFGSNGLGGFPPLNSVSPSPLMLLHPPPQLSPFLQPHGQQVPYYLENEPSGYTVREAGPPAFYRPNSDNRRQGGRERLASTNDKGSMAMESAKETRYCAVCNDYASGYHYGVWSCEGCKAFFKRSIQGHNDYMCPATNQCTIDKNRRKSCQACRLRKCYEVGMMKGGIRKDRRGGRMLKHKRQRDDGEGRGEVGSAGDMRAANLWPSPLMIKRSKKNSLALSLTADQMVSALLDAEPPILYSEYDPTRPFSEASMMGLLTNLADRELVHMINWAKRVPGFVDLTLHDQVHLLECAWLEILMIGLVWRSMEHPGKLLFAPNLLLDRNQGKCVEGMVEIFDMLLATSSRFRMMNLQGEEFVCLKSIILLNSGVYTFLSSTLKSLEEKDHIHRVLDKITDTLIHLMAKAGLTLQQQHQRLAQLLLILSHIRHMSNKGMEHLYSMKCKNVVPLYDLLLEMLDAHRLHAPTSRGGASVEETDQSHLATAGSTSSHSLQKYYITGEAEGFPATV
Description: Human Oestrogen Receptor (HOR)
A cytosolic extract of SF9 cells containing the recombinant human oestrogen receptor is obtained by overexpression in an insect-Baculovirus cell system, according to the general methodology described by N. R. WEBB et al. (Journal of Methods in Cell and Molecular Biology, (1990) Vol.2 No. 4, 173-188) and the application of which is described for the expression of human hormonal receptors, for example the human glucocorticoid receptor (G. SRINIVASAN et al. Molecular Endocrinology (1990) vol 4 No. 2 209-216).
The BaculoGold Transfection Kit (PharMingen, reference 21000K) is used to generate the recombinant baculovirus containing the cDNA fragment described in the expression vector HEGO by L. TORA et al. (The EMBO Journal (1989) vol. 8 No. 7 1981-1986), containing the coding region for the wild-type human oestrogen receptor with a glycine in position 400.
The recombinant virus thus obtained is used to express the oestrogen receptor in the SF9 insect cells (ATCC CRL1711), according to the known methodology mentioned previously.
2*10^7 SF9 cells are cultured in a 175 cm^2 “Falcon” flask in the TNM-FH “SIGMA” medium supplemented by 10% of foetal calf serum (FCS) and by 50 microgram/ml of gentamycin. After infection then incubation at 27° C. for 40 to 42 hours, the cells are lysed in 1 ml of lysis buffer (Tris 20 mM-HCl pH8, EDTA 0.5 mM, DTT 2 mM, Glycerol 20%, KCl 400 mM) with a freezing-thawing cycle which is repeated another two times. The supernatant, containing the recombinant human oestrogen receptor is kept in liquid nitrogen by 0.5 ml doses.
The supernatant is incubated at 0° C. for 24 hours (long t) or 3 hours (short t) with a constant concentration (T) of tritiated oestradiol in the presence of increasing concentrations of either unlabelled oestradiol (0-1000×10^−9M), or of unlabelled product to be tested (0-25000×10^−9M). The concentration of bound tritiated oestradiol (B) is then measured in each incubate by the technique of adsorption with carbon dextran.
as §1, §2, §3, §4, §5, §6, §7, §8

SMILES | ROR relative bond affinity (RBA) [1] | HOR short t relative bond affinity (RBA) [2] | HOR long t relative bond affinity (RBA) [2]
OCc1cc(Cl)c(-c2ccc(O)cc2)c(Cl)c1 [Example 24, 2,6-dichloro-4′-hydroxy-(1,1′-biphenyl)-4-methanol] | 3 | 104 | 35
O=[N+]([O-])c1cc(CO)cc(Br)c1-c1ccc(O)cc1 [Example 18, 2-bromo-4′-hydroxy-6-nitro-(1,1′-biphenyl)-4-methanol] | 5 | – | 34
CCc1cc(C(C)C)c(-c2ccc(O)cc2)cc1C [Example 6, 4′-ethyl-5′-methyl-2′-(1-methylethyl)-(1,1′-biphenyl)-4-ol] | – | – | 4.5
OCc1c(Cl)c(Cl)c(-c2ccc(O)cc2)c(Cl)c1Cl [Example 26, 4′-hydroxy-2.3,5,6-tetrachloro-(1,1′-biphenyl)-4-methanol] | – | – | 5.5
OCc1cc(Br)c(-c2ccc(O)cc2)c(Br)c1 [Example 2, 2,6-dibromo-4′-hydroxy-(1,1′-biphenyl)-4-methanol] | 12.5 | 425 | 74
OCc1cc(Cl)c(-c2ccc(O)cc2)c(C(F)(F)F)c1 [Example 7, 2-chloro-4′-hydroxy-6-(trifluoromethyl)-(1,1′-biphenyl)-4-methanol] | 9.5 | – | 50
OCc1cc(Cl)c(-c2ccc(O)c(Cc3ccccc3)c2)c(Cl)c1 [Example 36, 2,6-dichloro-4′-hydroxy-5′-(phenylmethyl)-(1,1′-biphenyl)-4-methanol] | 8 | – | 0.07
CC(C)c1cc(CO)cc(Cl)c1-c1ccc(O)cc1 [Example 4, 2-chloro-4′-hydroxy-6-(1-methylethyl)-(1,1′-biphenyl)-4-methanol] | 4 | – | 22
O=Cc1cc(Br)c(-c2ccc(O)cc2)c(Br)c1 [Example 1, 2,6-dibromo-4′-hydroxy-(1,1′-biphenyl)-4-carboxaldehyde] | – | – | 5.5
Cc1ccc(-c2ccc(O)cc2)c(C(F)(F)F)c1 [Example 29, 4′-methyl-2′-trifluoromethyl-(1,1′-biphenyl)-4-ol] | 0.15 | – | 0.6
OCc1ccc(-c2ccc(O)cc2)c(C(F)(F)F)c1 [Example 28, 4′-hydroxy-2-trifluoromethyl-(1,1′-biphenyl)-4-methanol] | 2 | 33 | 8
O=Cc1cc(Cl)c(-c2ccc(O)cc2)c(Cl)c1 [Example 25, 2,6-dichloro-4′-hydroxy-(1,1′-biphenyl)-4-carboxaldehyde] | – | 12 | 5
Cc1c(C(C)O)cc(C(C)C)c(-c2ccc(O)cc2)c1Cl (stereo not drawn) [Example 13, 1-[2-chloro-4′-hydroxy-3-methyl-6-(1-methylethyl)-(1,1′-biphenyl-4-yl)]-ethanol] | 0.8 | 24 | 7.5
O=[N+]([O-])c1cc(CO)cc([N+](=O)[O-])c1-c1ccc(O)cc1 [Example 30, 2,6-dinitro-4′-hydroxy-(1,1′-biphenyl)-4-methanol] | 2 | 24 | 5
